Experimental data taken from ChEMBL document CHEMBL4622945, “Synthesis and antiproliferative activity of C- and N-terminal analogues of culicinin D” (Bioorg Med Chem Lett, 2020).
Square brackets hold non-standard residues; d marks the D form. Peptide text beside a SMILES is read from it. * marks the point of attachment. NH((S)CH(Me)CH2NHC2H4OH) = C[C@@H](CNCCO)N*; NH((S)CH(CH3)CH2NHMe) = CNC[C@H](C)N*; Gly(octyl) = CCCCCCCC[C@H](N)C(=O)O; X5 = C[C@@H](N*)[C@@H](O)c1ccccc1; Hyp = O=C(O)[C@@H]1C[C@@H](O)CN1; Cha = N[C@@H](CC1CCCCC1)C(=O)O; Phe(ol) = N[C@H](CO)Cc1ccccc1; Lauroyl = CCCCCCCCCCCC(=O)*; Pip = O=C(O)[C@@H]1CCCCN1; NHCH2CH2NHMe = CNCCN*; Aib = CC(C)(N)C(=O)O; Butyryl = CCCC(=O)*; NHCH2CH2OH = OCCN*; βAla = NCCC(=O)O; X4 = OCCNCCN*

Experiments:
Format in all cases: functional, cell-based
[1] = tested on: MDA-MB-468; assay: Antiproliferative activity against human MDA-MB-468 cells assessed as reduction in cell growth by SRB assay
[2] = tested on: NCI-H460; assay: Antiproliferative activity against human NCI-H460 cells assessed as reduction in cell growth by SRB assay
[3] = tested on: SK-BR-3; assay: Antiproliferative activity against human SKBR3 cells assessed as reduction in cell growth by SRB assay
[4] = tested on: T47D; assay: Antiproliferative activity against human T47D cells assessed as reduction in cell growth by SRB assay

`CCCCCCCC[C@H](NC(=O)C(C)(C)NC(=O)C(C)(C)NC(=O)[C@H](CC1CCCCC1)NC(=O)[C@@H]1CCCN1C(=O)CCC)C(=O)N[C@@H](CC(C)C)C(=O)NC(C)(C)C(=O)N[C@@H](CC(C)C)C(=O)NCCC(=O)NCCNCCO` (Butyryl-P[Cha][Aib][Aib][Gly(octyl)]L[Aib]L[βAla]-X4) was tested, and the IC50 [1] was 0.01 µM, the IC50 [2] was 0.017 µM and the IC50 [3] was 0.067 µM. It also gave an IC50 [4] of 0.015 µM.
For `CCCCCCCC[C@H](NC(=O)C(C)(C)NC(=O)C(C)(C)NC(=O)[C@H](CC1CCCCC1)NC(=O)[C@@H]1CCCCN1C(=O)CCC)C(=O)N[C@@H](CC(C)C)C(=O)NC(C)(C)C(=O)N[C@@H](CC(C)C)C(=O)NCCC(=O)N[C@@H](C)CNCCO` (Butyryl-[Pip][Cha][Aib][Aib][Gly(octyl)]L[Aib]L[βAla]-{NH((S)CH(Me)CH2NHC2H4OH)}), the IC50 [1] was 0.011 µM, the IC50 [2] was 0.009 µM and the IC50 [3] was 0.034 µM. The IC50 [4] was 0.011 µM.
For `CCCCCCCC[C@H](NC(=O)C(C)(C)NC(=O)C(C)(C)NC(=O)[C@H](CC1CCCCC1)NC(=O)[C@@H]1CCCN1C(=O)CCC)C(=O)N[C@@H](CC(C)C)C(=O)NC(C)(C)C(=O)N[C@@H](CC(C)C)C(=O)NCCC(=O)N[C@H](CO)Cc1ccccc1` (Butyryl-P[Cha][Aib][Aib][Gly(octyl)]L[Aib]L[βAla][Phe(ol)]), the IC50 [1] was 0.144 µM, the IC50 [2] was 0.045 µM and the IC50 [3] was 0.178 µM. For the same compound, the IC50 [4] was 0.247 µM.
With `CCCCCCCC[C@H](NC(=O)C(C)(C)NC(=O)C(C)(C)NC(=O)[C@H](CC1CCCCC1)NC(=O)[C@@H]1C[C@@H](O)CN1C(=O)CCC)C(=O)N[C@@H](CC(C)C)C(=O)NC(C)(C)C(=O)N[C@@H](CC(C)C)C(=O)NCCC(=O)N[C@@H](C)CNCCO` (Butyryl-[Hyp][Cha][Aib][Aib][Gly(octyl)]L[Aib]L[βAla]-{NH((S)CH(Me)CH2NHC2H4OH)}) the IC50 [1] was 0.037 µM, the IC50 [2] was 0.04 µM and the IC50 [3] was 0.124 µM. It also gave an IC50 [4] of 0.038 µM.
Work on `CCCCCCCC[C@H](NC(=O)C(C)(C)NC(=O)C(C)(C)NC(=O)[C@H](CC1CCCCC1)NC(=O)[C@@H]1CCCN1C(=O)CCC)C(=O)N[C@@H](CC(C)C)C(=O)NC(C)(C)C(=O)N[C@@H](CC(C)C)C(=O)NCCC(=O)N[C@H](C)[C@@H](O)c1ccccc1` (Butyryl-P[Cha][Aib][Aib][Gly(octyl)]L[Aib]L[βAla]-X5) yielded an IC50 [1] of 0.242 µM, an IC50 [2] of 0.089 µM and an IC50 [3] of 0.344 µM. It also gave an IC50 [4] of 0.471 µM.
`CCCCCCCC[C@H](NC(=O)C(C)(C)NC(=O)C(C)(C)NC(=O)[C@H](CC1CCCCC1)NC(=O)[C@@H]1CCCN1C(=O)CCC)C(=O)N[C@@H](CC(C)C)C(=O)NC(C)(C)C(=O)N[C@@H](CC(C)C)C(=O)NCCC(=O)NCCNC` (Butyryl-P[Cha][Aib][Aib][Gly(octyl)]L[Aib]L[βAla]-NHCH2CH2NHMe) gave an IC50 [1] of 0.005 µM, an IC50 [2] of 0.01 µM and an IC50 [3] of 0.027 µM. It also gave an IC50 [4] of 0.008 µM.
`CCCCCCCC[C@H](NC(=O)C(C)(C)NC(=O)C(C)(C)NC(=O)[C@H](CC1CCCCC1)NC(=O)[C@@H]1CCCN1)C(=O)N[C@@H](CC(C)C)C(=O)NC(C)(C)C(=O)N[C@@H](CC(C)C)C(=O)NCCC(=O)N[C@@H](C)CNCCO` (H-P[Cha][Aib][Aib][Gly(octyl)]L[Aib]L[βAla]-{NH((S)CH(Me)CH2NHC2H4OH)}) gave an IC50 [1] of 0.01 µM, an IC50 [2] of 0.009 µM and an IC50 [3] of 0.057 µM. For the same compound, the IC50 [4] was 0.013 µM.
Work on `CCCCCCCC[C@H](NC(=O)C(C)(C)NC(=O)C(C)(C)NC(=O)[C@H](CC1CCCCC1)NC(=O)[C@@H]1CCCN1C(=O)CCC)C(=O)N[C@@H](CC(C)C)C(=O)NC(C)(C)C(=O)N[C@@H](CC(C)C)C(=O)NCCC(=O)NCCO` (Butyryl-P[Cha][Aib][Aib][Gly(octyl)]L[Aib]L[βAla]-NHCH2CH2OH) yielded an IC50 [1] of 0.363 µM, an IC50 [2] of 0.223 µM and an IC50 [3] of 0.512 µM. For the same compound, the IC50 [4] was 0.767 µM.
For `CCCCCCCCCCCC(=O)N1CCC[C@H]1C(=O)N[C@@H](CC1CCCCC1)C(=O)NC(C)(C)C(=O)NC(C)(C)C(=O)N[C@@H](CCCCCCCC)C(=O)N[C@@H](CC(C)C)C(=O)NC(C)(C)C(=O)N[C@@H](CC(C)C)C(=O)NCCC(=O)N[C@@H](C)CNCCO` (Lauroyl-P[Cha][Aib][Aib][Gly(octyl)]L[Aib]L[βAla]-{NH((S)CH(Me)CH2NHC2H4OH)}), the IC50 [1] was 0.023 µM, the IC50 [2] was 0.037 µM and the IC50 [3] was 0.073 µM. It also gave an IC50 [4] of 0.063 µM.
In the case of `CCCCCCCC[C@H](NC(=O)C(C)(C)NC(=O)C(C)(C)NC(=O)[C@H](CC1CCCCC1)NC(=O)[C@@H]1CCCN1C(=O)CCC)C(=O)N[C@@H](CC(C)C)C(=O)NC(C)(C)C(=O)N[C@@H](CC(C)C)C(=O)NCCC(=O)O` (Butyryl-P[Cha][Aib][Aib][Gly(octyl)]L[Aib]L[βAla]-OH), the IC50 [1] is reported as > 1 µM, the IC50 [2] is reported as > 1 µM and the IC50 [3] is reported as > 1 µM. For the same compound, the IC50 [4] was > 1 µM.
`CCCCCCCC[C@H](NC(=O)C(C)(C)NC(=O)C(C)(C)NC(=O)[C@H](CC1CCCCC1)NC(=O)[C@@H]1CCCN1C(=O)CCC)C(=O)N[C@@H](CC(C)C)C(=O)NC(C)(C)C(=O)N[C@@H](CC(C)C)C(=O)NCCC(=O)N[C@@H](C)CNC` (Butyryl-P[Cha][Aib][Aib][Gly(octyl)]L[Aib]L[βAla]-{NH((S)CH(CH3)CH2NHMe)}) showed an IC50 [1] of 0.003 µM, an IC50 [2] of 0.003 µM and an IC50 [3] of 0.013 µM. For the same compound, the IC50 [4] was 0.005 µM.
